According to patent US8026282B2, “Phenoxyalkylcarboxylic acid derivatives in the treatment of irritable bowel syndrome” (Medicinova, Inc., priority 2004, dated 2011):

Columns and labels:
[1] = Bioavailability of polymorphs of compound 1; type: in vivo; details: compared to the other polymorphs
[2] = test system: interstitial cystitis (IC); test: Example 8: patient with interstitial cystitis symptoms; type: in vivo, human; details: 1000 mg tablet orally twice daily for at least 2 months; present-tense example
Protocol: A person complains of suffering symptoms associated with interstitial cystitis (IC), including gastrointestinal symptoms of diarrhea, bloating and pain. In an effort to alleviate these symptoms, a tablet containing 1000 mg of compound (1) (Form A) is administered orally to this patient twice daily for at least 2 months. […] Similar positive results are observed for other patients complaining of the same or similar symptoms attributable to IC.

[3] = Solubility of polymorphs of compound 1; type: physicochemical; details: compared to the other polymorphs

Question: Which results are given for `CCCc1c(SCCCOc2ccc(C(C)=O)c(OCCCC(=O)O)c2CCC)ccc(C(C)=O)c1O` [Form A, 4-[6-acetyl-3-[3-(4-acetyl-3-hydroxy-2-propylphenylthio)propoxy]-2-propylphenoxy]butyric acid]?
Answer: bioavailability [1]: superior; symptoms of interstitial cystitis reported by patient [2]: positive effects; solubility [3]: superior
